We go through 13 molecules from PubChem BioAssay (NCI).

Among the test systems are RPMI-8226 leukemia; OVCAR-8 ovarian; MDA-MB-231 breast; OVCAR-5 ovarian; A549 NSCLC; SR leukemia; OVCAR-3 ovarian; SNB-19 CNS; M14 melanoma; EKVX NSCLC; HOP-92 NSCLC.
Test in all cases: growth of human tumour cells (NCI), 48 h

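Compound exposure: 48 hours, 5 concentrations, 96-well plates. At the TGI there is no net growth.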

As to `O=C(n1[nH]c(=O)n(-c2ccc([N+](=O)[O-])cc2)c1=O)C(Cl)(Cl)Cl`, the TGI in the test with RPMI-8226 leukemia, in the test with OVCAR-8 ovarian, with MDA-MB-231 breast, in the test on OVCAR-5 ovarian, in the test with A549 NSCLC and in the test on SR leukemia was greater than 75 µM throughout. The TGI in the test on OVCAR-3 ovarian, with SNB-19 CNS, in the test on M14 melanoma and with EKVX NSCLC was greater than 75 µM in each case.

Regarding `CCOC(=O)C(=O)Nc1ccc([N+](=O)[O-])cc1C#N`, the TGI with RPMI-8226 leukemia, in the test on OVCAR-8 ovarian, in the test with HOP-92 NSCLC, with OVCAR-5 ovarian, in the test on A549 NSCLC and in the test on SR leukemia was greater than 100 µM each time. Also, the TGI with OVCAR-3 ovarian, with SNB-19 CNS, in the test with M14 melanoma and in the test with EKVX NSCLC was greater than 100 µM in each case.

For `Clc1ccc2c(Cl)ncnc2c1I`, the TGI with RPMI-8226 leukemia, in the test on OVCAR-8 ovarian, with OVCAR-5 ovarian, in the test on A549 NSCLC, in the test on SR leukemia and in the test with OVCAR-3 ovarian was greater than 100 µM in each case. The TGI in the test on SNB-19 CNS is greater than 100 µM; in the test with M14 melanoma it was greater than 100 µM; in the test on EKVX NSCLC, 99.4 µM.

For the molecule `CC(C)CC(NC(=O)OCc1ccccc1)C(=O)NCCCCC(N)C(=O)NC(CCCCNC(=O)C(CC(C)C)NC(=O)OCc1ccccc1)C(=O)NC(CCCCNC(=O)C(CC(C)C)NC(=O)OCc1ccccc1)C(=O)NC(CCCCNC(=O)C(CC(C)C)NC(=O)OCc1ccccc1)C(=O)NC(CCCCNC(=O)C(CC(C)C)NC(=O)OCc1ccccc1)C(=O)NC(CCCCNC(=O)C(CC(C)C)NC(=O)OCc1ccccc1)C(=O)O` (stereo not given), the TGI with RPMI-8226 leukemia, in the test with OVCAR-8 ovarian, with MDA-MB-231 breast, in the test with OVCAR-5 ovarian, in the test with A549 NSCLC and in the test with SR leukemia was greater than 100 µM throughout. Further, the TGI with OVCAR-3 ovarian and in the test with SNB-19 CNS was greater than 100 µM each time.

Regarding `O=C(/C=C(\O)C(=O)O)/C=C(\O)c1ccccc1Cl`, the TGI in the test with RPMI-8226 leukemia, in the test on OVCAR-8 ovarian, with HOP-92 NSCLC, in the test with OVCAR-5 ovarian, in the test with A549 NSCLC and in the test with SR leukemia was greater than 100 µM throughout. Further, the TGI in the test on OVCAR-3 ovarian, with SNB-19 CNS, with M14 melanoma and with EKVX NSCLC was greater than 100 µM each time.

As for `CC1=C(C(=O)OC23CC4CC(CC(C4)C2)C3)C(c2ccccc2OC(F)F)C(C(=O)OC23CC4CC(CC(C4)C2)C3)=C(C)N1` (stereo not given), the TGI with RPMI-8226 leukemia, in the test on OVCAR-8 ovarian, in the test with MDA-MB-231 breast, with HOP-92 NSCLC, with OVCAR-5 ovarian and in the test with A549 NSCLC was greater than 100 µM in each case. Further, the TGI in the test on SR leukemia, in the test with OVCAR-3 ovarian, in the test on SNB-19 CNS and in the test with M14 melanoma was greater than 100 µM in each case.

Turning to `COc1c(C(CC(C)C)OC(C)=O)ccc2c1C(=O)OCc1cc(C)cc(O)c1O2` (stereo not given), the TGI in the test on RPMI-8226 leukemia was greater than 100 µM; in the test on OVCAR-8 ovarian, 33.1 µM; in the test on HOP-92 NSCLC it was 24.5 µM; in the test on OVCAR-5 ovarian it was 28.4 µM; with A549 NSCLC it was 25.8 µM; in the test with SR leukemia, greater than 100 µM. For the same molecule, the TGI in the test with OVCAR-3 ovarian was 22.3 µM; with SNB-19 CNS it was 28.7 µM; in the test with M14 melanoma it was 31.3 µM; in the test on EKVX NSCLC, 24.1 µM.

Regarding `COC(=O)C(Cc1ccccc1)C(=O)NC(CNC(=O)OCc1ccccc1)C(=O)OCc1ccccc1` (stereo not given), the TGI with RPMI-8226 leukemia was 50.2 µM; in the test with OVCAR-8 ovarian, greater than 100 µM; in the test with MDA-MB-231 breast, 50.3 µM; with HOP-92 NSCLC it was greater than 72.3 µM; with OVCAR-5 ovarian it was greater than 100 µM; with SR leukemia, greater than 69.2 µM. The TGI in the test on OVCAR-3 ovarian is 48.7 µM; with SNB-19 CNS, greater than 100 µM; in the test on M14 melanoma, 30.4 µM; with EKVX NSCLC, greater than 100 µM.

Regarding `CC1=C(N(C)C)C(=O)c2nc3n(c2C1=O)CCC3OC(N)=O` (stereo not given), the TGI in the test with RPMI-8226 leukemia was greater than 100 µM; with OVCAR-8 ovarian, 34.3 µM; in the test with HOP-92 NSCLC, 28.2 µM; in the test with OVCAR-5 ovarian, 34 µM; in the test with A549 NSCLC it was 35.1 µM; in the test on SR leukemia, greater than 100 µM. Besides, the TGI with OVCAR-3 ovarian turned out to be 30.6 µM; with SNB-19 CNS, 31.4 µM; in the test on M14 melanoma it was 27.4 µM; in the test on EKVX NSCLC, 36 µM.

As for `O=C(O/N=C1/CCC/C1=C\c1ccccc1)c1ccccc1`, the TGI with RPMI-8226 leukemia, in the test on OVCAR-8 ovarian, in the test with HOP-92 NSCLC, in the test on OVCAR-5 ovarian, in the test with A549 NSCLC and in the test on SR leukemia was greater than 100 µM throughout. For the same molecule, the TGI with OVCAR-3 ovarian, in the test with M14 melanoma and in the test on EKVX NSCLC was greater than 100 µM throughout.

For the molecule `Cc1nc2c(s/c(=N\N)n2-c2ccccc2)c(=O)[nH]1`, the TGI in the test with RPMI-8226 leukemia, in the test with OVCAR-8 ovarian, in the test on HOP-92 NSCLC, in the test on OVCAR-5 ovarian, with A549 NSCLC and in the test on SR leukemia was greater than 100 µM throughout. Besides, the TGI with OVCAR-3 ovarian, in the test with SNB-19 CNS, in the test on M14 melanoma and in the test with EKVX NSCLC was greater than 100 µM throughout.

Turning to `CC/C(=C/OC)P1(=O)OC(C)(C)CN1C(C)(C)C` (stereo not given), the TGI in the test on RPMI-8226 leukemia, in the test on OVCAR-8 ovarian, with MDA-MB-231 breast, with OVCAR-5 ovarian, in the test on A549 NSCLC and in the test on SR leukemia was greater than 100 µM each time. Besides, the TGI in the test on OVCAR-3 ovarian, in the test with SNB-19 CNS, in the test with M14 melanoma and in the test on EKVX NSCLC was greater than 100 µM throughout.

For the molecule `Cc1c(C(=O)Nc2ccc(Cl)c(C(F)(F)F)c2)oc2cc(O)ccc2/c1=N\NC(N)=S`, the TGI in the test with RPMI-8226 leukemia, in the test on OVCAR-8 ovarian, in the test with OVCAR-5 ovarian, with A549 NSCLC, in the test with SR leukemia and in the test on OVCAR-3 ovarian was greater than 100 µM in each case. Moreover, the TGI in the test on SNB-19 CNS, with M14 melanoma and in the test on EKVX NSCLC was greater than 100 µM throughout.
